Where two headings read alike, the source gives them in different places. Marks after values point to notes of the source that are not given here.
How the values were obtained:
[1] = pH 7
[2] = Sustained release of acetophenone in vitro in model blood electrolyte solution at 37° C.; type: physicochemical; conditions: for Concentration of sodium benzoyl acetate model prodrug in sample: model blood electrolyte solution pH 7.4
Procedure: (§1) A 0.2 M solution of ethyl benzoyl acetate (90%, Sigma Aldrich) in 0.5 M NaOH (aq) was prepared at room temperature and stirred for typically 5-24 hours, still at room temperature. After this time a major part of the ethyl benzoyl acetate had been transformed into dissolved sodium benzoyl acetate, as evidenced by monitoring the reaction by analysis of samples by reversed phase HPLC. Some acetophenone and remaining ethyl benzoyl acetate were typically present in the samples, but in minor amounts. The method employed a C8 column with an inner diameter of 150×4.6 mm and 5 micron particles. The mobile phase consisted of 400 ml deionized water+600 ml acetonitrile+0.196 g H3PO4 (85%)+2.760 g NaH2PO4*H2O. The flow rate was set to 1.0 mL/min and UV detection at 254 nm was employed for analysis of the compounds ethylbenzoylacetate (precursor), benzoylacetate (model prodrug) and acetophenone (model drug).
Ethyl benzoyl acetate was saponified according to the description in Example 1, and after 7 hours a solution containing about 0.2 M of the sodium salt of benzoyl acetate was obtained.

[3] = Storage stability of benzoylacetate salts and their corresponding acid (HPLC or gravimetric); type: physicochemical; conditions: for % relative to initial sample amount (by HPLC): stored in freezer (ca −18° C.)
Procedure: as §1
The storage stability of the sodium and calcium salts of benzoylacetate, and of benzoylacetic acid, in solid form, and in aqueous solutions, was investigated by storage of samples under various conditions (see Table 3a above) with regular HPLC- or gravimetric measurements of the samples from time to time. Samples denoted “neutralized” were prepared from a solution prepared as described in Example 1, which was neutralized with diluted HCl after performing the steps in Example 1.
From the data it can be concluded that the best storage stability at room temperature is obtained by storage in the form of the calcium salt.

[4] = physchem

- Solubility [1]: ≧200 mM
- half-life at 2 mM ([2]; model blood electrolyte solution pH 7.4, 37° C., read-out: estimated half-life (converted)): ~20 h
- Concentration of sodium benzoyl acetate model prodrug in sample ([2]; Time @ 37° C. 0.42): 2660 µM
- Concentration of sodium benzoyl acetate model prodrug in sample ([2]; Time @ 37° C. 2.25): 2300 µM
- Concentration of sodium benzoyl acetate model prodrug in sample ([2]; Time @ 37° C. 3.17): 2440 µM
- Concentration of sodium benzoyl acetate model prodrug in sample ([2]; Time @ 37° C. 4.17): 2400 µM
- Concentration of sodium benzoyl acetate model prodrug in sample ([2]; Time @ 37° C. 6.17): 1710 µM
- Concentration of sodium benzoyl acetate model prodrug in sample ([2]; Time @ 37° C. 8.25): 1960 µM
- Concentration of sodium benzoyl acetate model prodrug in sample ([2]; Time @ 37° C. 10.17): 1690 µM
- Concentration of sodium benzoyl acetate model prodrug in sample ([2]; Time @ 37° C. 12.17): 1590 µM
- Concentration of sodium benzoyl acetate model prodrug in sample ([2]; Time @ 37° C. 13.92): 1520 µM
- Concentration of sodium benzoyl acetate model prodrug in sample ([2]; Time @ 37° C. 17.92): 1430 µM
- Concentration of sodium benzoyl acetate model prodrug in sample ([2]; Time @ 37° C. 21.17): 1310 µM
- Concentration of sodium benzoyl acetate model prodrug in sample ([2]; Time @ 37° C. 24.92): 1020 µM
- Concentration of sodium benzoyl acetate model prodrug in sample ([2]; Time @ 37° C. 31.33): 940 µM
- Concentration of sodium benzoyl acetate model prodrug in sample ([2]; Time @ 37° C. 48.75): 530 µM
- Concentration of sodium benzoyl acetate model prodrug in sample ([2]; Time @ 37° C. 76.33): 200 µM
- % relative to sample amount remaining after 2 days (by HPLC) ([3]; Alkaline solution of Na-benzoyl acetate from Example 1, stored at room T, storage time 2 days): 100.0%
- % relative to sample amount remaining after 2 days (by HPLC) ([3]; Alkaline solution of Na-benzoyl acetate from Example 1, stored at room T, storage time 8 days): 66.2%
- % relative to sample amount remaining after 2 days (by HPLC) ([3]; Alkaline solution of Na-benzoyl acetate from Example 1, stored at room T, storage time 23 days): 10.0%
- % relative to sample amount remaining after 2 days (by HPLC) ([3]; Neutralized solution of Na-benzoyl acetate from Example 1 (pH 7.1), at room T, storage time 2 days): 100.0%
- % relative to sample amount remaining after 2 days (by HPLC) ([3]; Neutralized solution of Na-benzoyl acetate from Example 1 (pH 7.1), at room T, storage time 8 days): 52.0%
- % relative to sample amount remaining after 2 days (by HPLC) ([3]; Neutralized solution of Na-benzoyl acetate from Example 1 (pH 7.1), at room T, storage time 23 days): 8.9%
- % relative to sample amount remaining after 2 days (by HPLC) ([3]; Solid Na-salt, neutralized, 30-50% RH at room T, storage time 2 days): 100.0%
- % relative to sample amount remaining after 2 days (by HPLC) ([3]; Solid Na-salt, neutralized, 30-50% RH at room T, storage time 8 days): 84.8%
- % relative to sample amount remaining after 2 days (by HPLC) ([3]; Solid Na-salt, neutralized, 30-50% RH at room T, storage time 23 days): 33.4%
- % of absolute amount expected to be present in sample (by HPLC) ([3]; Solid Na-salt, neutralized, 30-50% RH at room T, storage time 185 days): 1.3*** %
- % of absolute amount expected to be present in sample (by HPLC) ([3]; Solid Na-salt, neutralized, stored at 6° C., storage time 0 days): 103.1%
- % of absolute amount expected to be present in sample (by HPLC) ([3]; Solid Na-salt, neutralized, stored at 6° C., storage time 2 days): 112.6%
- % of absolute amount expected to be present in sample (by HPLC) ([3]; Solid Na-salt, neutralized, stored at 6° C., storage time 5 days): 109.2%
- % of absolute amount expected to be present in sample (by HPLC) ([3]; Solid Na-salt, neutralized, stored at 6° C., storage time 8 days): 102.0%
- % of absolute amount expected to be present in sample (by HPLC) ([3]; Solid Na-salt, neutralized, stored at 6° C., storage time 12 days): 100.7%
- % of absolute amount expected to be present in sample (by HPLC) ([3]; Solid Na-salt, neutralized, stored at 6° C., storage time 16 days): 98.5%
- % of absolute amount expected to be present in sample (by HPLC) ([3]; Solid Na-salt, neutralized, stored at 6° C., storage time 21 days): 81.9%
- % of absolute amount expected to be present in sample (by HPLC) ([3]; Solid Na-salt, neutralized, stored at 6° C., storage time 37 days): 74.6%
- % of absolute amount expected to be present in sample (by HPLC) ([3]; Solid Na-salt, neutralized, stored at 6° C., storage time 49 days): 72.3%
- % of absolute amount expected to be present in sample (by HPLC) ([3]; Solid Na-salt, neutralized, stored at 60° C., storage time 0.02 days): 77.2%
- % of absolute amount expected to be present in sample (by HPLC) ([3]; Solid Na-salt, neutralized, stored at 60° C., storage time 0.8 days): 10.7%
- % of absolute amount expected to be present in sample (by HPLC) ([3]; Solid Na-salt, neutralized, stored at 60° C., storage time 9.1 days): 3.6%
- % relative to initial sample amount (by HPLC) ([3]; Solid Na-salt, neutralized, storage time 0 days): 100%
- % relative to initial sample amount (by HPLC) ([3]; Solid Na-salt, neutralized, storage time 2 days): 100%
- % relative to initial sample amount (by HPLC) ([3]; Solid Na-salt, neutralized, storage time 5 days): 124%
- % relative to initial sample amount (by HPLC) ([3]; Solid Na-salt, neutralized, storage time 8 days): 106%
- % relative to initial sample amount (by HPLC) ([3]; Solid Na-salt, neutralized, storage time 12 days): 112%
- % relative to initial sample amount (by HPLC) ([3]; Solid Na-salt, neutralized, storage time 16 days): 106%
- % relative to initial sample amount (by HPLC) ([3]; Solid Na-salt, neutralized, storage time 21 days): 101%
- % relative to initial sample amount (by HPLC) ([3]; Solid Na-salt, neutralized, storage time 37 days): 105%
- % relative to initial sample amount (by HPLC) ([3]; Solid Na-salt, neutralized, storage time 49 days): 117%
- % relative to sample amount remaining after 2 days (by HPLC) ([3]; Solid Na-salt, non neutralized, 30-50% RH at room T, storage time 2 days): 100.0%
- % relative to sample amount remaining after 2 days (by HPLC) ([3]; Solid Na-salt, non neutralized, 30-50% RH at room T, storage time 8 days): 46.8%
- % relative to sample amount remaining after 2 days (by HPLC) ([3]; Solid Na-salt, non neutralized, 30-50% RH at room T, storage time 23 days): 12.4%
- Solubility ([4]; pH 7, water, Solubility): > 200 mM
- Solubility ([4]; water, Solubility (mM, as acetophenone equivalents)): ≥ 200 mM
SMILES: O=C([O-])CC(=O)c1ccccc1.[Na+] [sodium benzoylacetate]

— patent US20120065179A1, “PRODRUG COMPRISING BETA-KETO CARBOXYLIC ACID, BETA-KETO CARBOXYLIC ACID SALT OR BETA-KETO CARBOXYLIC ACID ESTER FOR DRUG DELIVERY” (YKI, Ytemiska Institutet AB, priority 2009, published 2012)
